Results taken from patent US8816090B2, “Benzisoxazole derivatives” (Pfizer Inc., priority 2005, dated 2014).

How the values were obtained:
Human 5-HT4(d) = biological target: T1, Human 5-HT4(d) (Homo sapiens, UniProt Q13639); assay: Agonist-induced cAMP elevation in human 5-HT4(d) transfected HEK293 cells; format: cell-based; details: for Emax: HEK293, cAMP production normalized to the amount produced by 1,000 nM serotonin; for EC50: cAMP elevation (HTRF), human 5-HT4(d) transfected HEK293 cells
T1 construct: expressed in transfected cells
Method: Human 5-HT4(d) transfected HEK293 cells were established in-house. The cells were grown at 37° C. and 5% CO2 in DMEM supplemented with 10% FCS, 20 mM HEPES (pH 7.4), 200 μg/ml hygromycin B (Gibco), 100 units/ml penicillin and 100 μg/ml streptomycin.
The cells were grown to 60-80% confluence. On the previous day before treatment with compounds dialyzed FCS (Gibco) was substituted for normal and the cells were incubated overnight.
Compounds were prepared in 96-well plates (12.5 μl/well). The cells were harvested with PBS/1 mM EDTA, centrifuged and washed with PBS. At the beginning of the assay, cell pellet was resuspended in DMEM supplemented with 20 mM HEPES, 10 μM pargyline (Sigma) and 1 mM 3-isobutyl-1-methylxanthine (Sigma) at the concentration of 1.6×10^5 cells/ml and left for 15 min at room temperature. The reaction was initiated by addition of the cells into plates (12.5 μl/well). After incubation for 15 min at room temperature, 1% Triton X-100 was added to stop the reaction (25 μl/well) and the plates were left for 30 minutes at room temperature. Homogenous time-resolved fluorescence-based cAMP (Schering) detection was made according to the manufacturer's instruction. ARVOsx multilabel counter (Wallac) was used to measure HTRF (excitation 320 nm, emission 665 nm/620 nm, delay time 50 μs, window time 400 μs).
Data was analyzed based on the ratio of fluorescence intensity of each well at 620 nm and 665 nm followed by cAMP quantification using cAMP standard curve. Enhancement of cAMP production elicited by each compound was normalized to the amount of cAMP produced by 1,000 nM serotonin (Sigma).

T1 sequence (Q13639 1-360 isoform Q13639-3): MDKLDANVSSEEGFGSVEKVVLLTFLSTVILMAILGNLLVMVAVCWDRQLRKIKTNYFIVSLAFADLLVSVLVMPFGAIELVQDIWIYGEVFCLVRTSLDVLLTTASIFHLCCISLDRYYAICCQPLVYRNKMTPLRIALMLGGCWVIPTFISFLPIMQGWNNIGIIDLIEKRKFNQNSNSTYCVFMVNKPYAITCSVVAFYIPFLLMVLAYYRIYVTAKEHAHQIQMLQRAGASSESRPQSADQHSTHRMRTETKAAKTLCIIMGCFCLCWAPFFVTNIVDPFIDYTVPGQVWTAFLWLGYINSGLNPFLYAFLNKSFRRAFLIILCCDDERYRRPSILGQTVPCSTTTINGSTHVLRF

Row | SMILES | melting point [°C] | Emax (Human 5-HT4(d)) [%] | EC50 (Human 5-HT4(d)) [nM]
1 | O=C(O)C1(CN2CCC(COc3noc4cccc(OC5CCOCC5)c34)CC2)CCCCC1 [Example 30, 1-{[4-({[4-(Tetrahydro-2H-pyran-4-yloxy)-1,2-benzisoxazol-3-yl]oxy}methyl)piperidin-1-yl]methyl}-cyclohexanecarboxylic acid] | 157.1 | 88 | 19
2 | OC1(COc2cccc3onc(OCC4CCN(CC5(O)CCOCC5)CC4)c23)CCCC1 [Example 31, 4-({4-[{(4-[(1-Hydroxycyclopentyl)methoxy]-1,2-benzisoxazol-3-yl}oxy)methyl]piperidin-1-yl}-methyl)tetrahydro-2H-pyran-4-ol] | 136.5 | 31 | 27
3 | O=C(O)[C@H]1CC[C@H](CN2CCC(COc3noc4cccc(O[C@H]5CC[C@@H](O)CC5)c34)CC2)CC1 [Example 44, trans-4-({4-[({4-[(cis-4-Hydroxycyclohexyl)oxy]-1,2-benzisoxazol-3-yl}oxy)methyl]piperidin-1-yl}-methyl)cyclohexanecarboxylic acid] | 182.7 | 55 | 2.4
4 | O=C(O)C1(CN2CCC(COc3noc4cccc(OCC5(CO)CCC5)c34)CC2)CCC1 [Example 50] | 194.2 | 50 | 98
5 | O=C(O)C1(CN2CCC(CNc3noc4cccc(OCC(F)(F)F)c34)CC2)CCOCC1 [Example 53, 4-{[4-({[4-(2,2,2-Trifluoroethoxy)-1,2-benzisoxazol-3-yl]amino}methyl)piperidin-1-yl]methyl}-tetrahydro-2H-pyran-4-carboxylic acid] | 171.9 | 59 | 2.8

More lines, in order of falling EC50 (Human 5-HT4(d)), values ahead:

Row | melting point [°C] | Emax (Human 5-HT4(d)) [%] | EC50 (Human 5-HT4(d)) [nM] | SMILES
6 | 197.2 | 45 | 5.5 | O=C(O)C1(CN2CCC(COc3noc4cccc(O[C@H]5CC[C@@H](CO)CC5)c34)CC2)CCOCC1 [Example 46, 4-[(4-{[(4-{[cis-4-(Hydroxymethyl)cyclohexyl]oxy}-1,2-benzisoxazol-3-yl)oxy]methyl}piperidin-1-yl)-methyl]tetrahydro-2H-pyran-4-carboxylic acid]
7 | 188 | 43 | 4.3 | O=C(O)C1(CN2CCC(COc3noc4cccc(O[C@H]5CC[C@@H](CO)CC5)c34)CC2)CCCC1 [Example 48, 1-[(4-{[(4-{[cis-4-(Hydroxymethyl)cyclohexyl]oxy}-1,2-benzisoxazol-3-yl)oxy]methyl}piperidin-1-yl)methyl]cyclopentanecarboxylic acid]
8 | 189.6 | 42 | 3.8 | O=C(O)C1(CN2CCC(COc3noc4cccc(O[C@H]5CC[C@@H](O)CC5)c34)CC2)CCCC1 [Example 45, 1-({4-[({4-[(cis-4-Hydroxycyclohexyl)oxy]-1,2-benzisoxazol-3-yl}oxy)methyl]piperidin-1-yl}methyl)-cyclopentanecarboxylic acid]
9 | 133.1 | 40 | 0.84 | O=C1CCCC1Oc1cccc2onc(OCC3CCN(CC4(O)CCOCC4)CC3)c12 (stereo not drawn) [Example 38, 2-{[3-({1-[(4-Hydroxytetrahydro-2H-pyran-4-yl)methyl]piperidin-4-yl}methoxy)-1,2-benzisoxazol-4-yl]oxy}cyclopentanone]
